Test results as given in patent US8236843B2, “Anti inflammatory compounds” (Elder Pharmaceuticals Ltd., priority 2008, dated 2012).
Read-outs that look alike come from different tables or passages of the source.

Experiments:
[1] = Acute oral toxicity studies (OECD AOT No. 425); details: both sexes, mouse, in vivo, albino mice, observed 48 hrs
Method: Acute Oral Toxicity Studies
The mice were observed continuously for 2 h for behavioral, neurological and autonomic profiles for any lethality or death for next 48 hrs. Based on the results obtained from this study, lethal dose (LD50) was calculated.

[2] = system: Wistar rats; details: rat, in vivo, po, 100 mg/kg
Method: (§2) Assessment of Gastric Ulcerogenic Effects in the Rat on Acute Administration of Drugs
(§3) Groups of 6 male Wistar rats weighing 120-140 g were fasted for 24 h with free access to water. […] The lengths (in millimeters) of all hemorrhagic lesions were measured and the “gastric damage score” was calculated for each stomach by summing these values. After scoring the damage, a sample of the corpus region of each stomach was fixed in neutral buffered formalin for subsequent histologic assessment.

[3] = system: Swiss albino mice; test: Analgesic activity against acetic acid induced writhing; format: in vivo; details: 10 mg/kg p.o., 1 h before i.p. 0.6% acetic acid; writhes counted for 10 min
Excerpt: (§1) Male Wistar rats weighing 175-200 g and Swiss albino mice weighing 20-25 g were housed in the Animal Care Facility. The animals were fed standard laboratory feed and tap water. Unless otherwise noted, in all experiments described in the following text, the sample size in each group was at least 6.
Analgesic Activity Against Acetic Acid Induced Writhing
Pain was induced by injection of irritant i.e. acetic acid into the peritoneal cavity of mice. […] Vehicle (1% w/v carboxymethylcellulose (CMC), 0.5 ml per orally (p.o.)) was given to control group (n=6 per group) of mice. […]. One hour following the administration of test molecule, 0.1 ml/100 gm of 0.6% v/v acetic acid solution was injected intraperitoneally to each of the test mice. The number of writhes that occurred within the next 10 min following acetic acid administration was counted and recorded. Results were expressed as percentage inhibition of writhing.

[4] = system: Wistar rats; test: Carrageenan-induced rat paw edema model; format: in vivo; details: 10 mg/kg oral, 2 h before carrageenan; for Anti-inflammatory activity in Wistar rats (% inhibition) 3 h: paw edema at 3 h; for Anti-inflammatory activity in Wistar rats (% inhibition) 4 h: paw edema at 4 h
Method: as §1
In Vivo Screening Method, Carrageenan-Induced Rat Paw Edema Model
Male Wistar rats (120-140 gm) were fasted for 16 hour before the experiment. Anti-inflammatory activity was evaluated by carrageenan-induced paw edema test in rats. Diclofenac sodium, tolfenamic acid and celecoxib at 10 mg/kg were administered as standard drugs for comparison. The test molecules were administered at dose level 10 mg/kg. Molecules were suspended in 0.25% carboxymethylcellulose (CMC) and administered orally in a volume of 10 ml/kg, 2 hour before carrageenan injection. Paw edema was induced in rats by intradermal injection of 50 μl, of 1% λ-carrageenan in saline into the planer surface of right hind paw. The volume of the injected paw was measured hourly thereafter for 4 hours using plethysmometer (Ugo-Basile, Italy). Paw edema was compared with vehicle controlled group and percentage inhibition was calculated.

[5] = system: Wistar rats; details: for Gastric score: 100 mg/kg oral, fasted rats, 5 hours, sum of lesion lengths, mean SEM, 6 rats; for Histopathology study (ulcerogenecity): Dose 100 mg/kg oral, rat stomach
Method: as §2, §3

Row | Structure (SMILES) | Analgesic activity in Swiss albino mice (% inhibition) [3] [%] | Anti-inflammatory activity in Wistar rats (% inhibition) 3 h [4] [%] | Anti-inflammatory activity in Wistar rats (% inhibition) 4 h [4] [%] | melting point [°C] | further results
1 | Cc1c(Cl)cccc1Nc1ccccc1C(=O)O [Tolfenamic acid] | – | – | – | – | LD50 at 48 h [1]: < 550 mg/kg; Histopathology study (ulcerogenecity) [2]: Shows sign of
2 | O=C(O)c1ccccc1-c1ccc(Cn2cnc([N+](=O)[O-])c2)cc1 [4′-(4-Nitro-imidazol-1-ylmethyl)-biphenyl-2-carboxylic acid] | 84.13 | 38.31 | 44.63 | – | Gastric score [5]: 1.6 ± 0.50; Histopathology study (ulcerogenecity) [5]: No sign of ulceration
3 | O=C(O)Cc1ccccc1Nc1c(Cl)cccc1Cl [Diclofenac sodium, reference compound] | 89.51 | 35.05 | 39.99 | – | –
4 | Cc1nc([N+](=O)[O-])c(Br)n1Cc1ccc(-c2ccccc2C(=O)O)cc1 | – | – | – | 222 to 225 | –
5 | Cc1nc([N+](=O)[O-])c(Br)n1Cc1ccc(-c2ccccc2C#N)cc1 | – | – | – | 158 to 162 | –
6 | N#Cc1ccccc1-c1ccc(Cn2cnc([N+](=O)[O-])c2)cc1 [4′-(4-Nitro-imidazol-1-ylmethyl)-biphenyl-2-carbonitrile] | 86.61 | 35.82 | 44.28 | – | Gastric score [5]: 1.83 ± 0.54; Histopathology study (ulcerogenecity) [5]: No sign of ulceration
7 | NS(=O)(=O)c1ccc(Nc2ccccc2-c2ccc(Cn3cc([N+](=O)[O-])nc3CO)cc2)cc1 [Formula (I) Sr. No. 7, 4-[4′-(2-Hydroxymethyl-4-nitro-imidazol-1-ylmethyl)-biphenyl-2-ylamino]-benzenesulfonamide] | – | – | – | 154 to 155 | –
8 | Cc1ncc([N+](=O)[O-])n1Cc1ccc(-c2ccccc2C#N)cc1 [4′-(2-Methyl-5-nitro-imidazol-1-ylmethyl)-biphenyl-2-carbonitrile] | 84.25 | 19.52 | 24.25 | – | –
9 | O=[N+]([O-])c1cn(Cc2ccc(-c3ccccc3-c3nnn[nH]3)cc2)cn1 | – | – | – | 202 to 204 | –
10 | Cc1ccc(-c2cc(C(F)(F)F)nn2-c2ccc(S(N)(=O)=O)cc2)cc1 [Celecoxib, reference compound] | 77.0 | 45.24 | 45.32 | – | LD50 at 48 h [1]: < 2000 mg/kg; Histopathology study (ulcerogenecity) [2]: No sign of ulceration
